Experimental data: article PMC11055700 (Chemicke Zvesti, 2024)
pIC50: −log10 of the molar value. Like-named read-outs stand apart in the source and are kept apart here.

Assays:
[1] = molecular target: T1, SARS-CoV-2 Spike-RBD (ancestral, WT) / ACE2 (Homo sapiens, UniProt Q9BYF1); experiment: biochemical; assay type: binding
T1 construct: a SARS-CoV-2 RBD protein containing a C-terminal His tag; a full-length ACE2 peptide with a C-terminal Fc tag; purchased Sino Biological

[2] = molecular target: T2, SARS-CoV-2 Spike-RBD (lambda) / ACE2 (Homo sapiens, UniProt Q9BYF1); experiment: biochemical; assay type: binding
T2 construct: a SARS-CoV-2 RBD protein containing a C-terminal His tag; a full-length ACE2 peptide with a C-terminal Fc tag; purchased Sino Biological
T2 sequence (Q9BYF1 18-740): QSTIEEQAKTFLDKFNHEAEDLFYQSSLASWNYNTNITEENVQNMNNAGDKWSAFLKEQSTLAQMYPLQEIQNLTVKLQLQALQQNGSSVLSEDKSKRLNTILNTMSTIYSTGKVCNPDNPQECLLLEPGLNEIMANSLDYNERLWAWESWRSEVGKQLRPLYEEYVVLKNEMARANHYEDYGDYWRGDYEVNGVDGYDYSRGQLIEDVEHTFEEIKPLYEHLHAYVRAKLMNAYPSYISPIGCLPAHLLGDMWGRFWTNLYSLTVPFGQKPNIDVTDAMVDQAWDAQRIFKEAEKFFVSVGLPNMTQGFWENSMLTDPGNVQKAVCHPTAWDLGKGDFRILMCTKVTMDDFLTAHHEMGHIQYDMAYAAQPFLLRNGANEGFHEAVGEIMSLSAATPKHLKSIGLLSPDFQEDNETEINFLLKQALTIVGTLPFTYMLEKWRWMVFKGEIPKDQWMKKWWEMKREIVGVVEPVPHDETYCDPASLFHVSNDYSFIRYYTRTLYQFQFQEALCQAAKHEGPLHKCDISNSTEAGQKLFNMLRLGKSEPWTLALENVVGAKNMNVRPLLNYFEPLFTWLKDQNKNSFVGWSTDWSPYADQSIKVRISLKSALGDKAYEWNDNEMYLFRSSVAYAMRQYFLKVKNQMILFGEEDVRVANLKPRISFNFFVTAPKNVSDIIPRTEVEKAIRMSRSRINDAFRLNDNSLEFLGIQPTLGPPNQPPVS

T1 sequence (Q9BYF1 18-740): as above

O=C1Nc2ccc(Cl)cc2C1=NNc1ccc([N+](=O)[O-])cc1[N+](=O)[O-] [H2L, 5-chloro-3-(2-(2,4-dinitrophenyl)hydrazono)indolin-2-one]
pIC50 ([1]; IC50 spike RBD/ACE2 binding, WT RBD sequence): 6.35
fold difference in IC50 for any variant versus WT RBD [2]: ≤ 1.4 fold

REGN10933
pIC50 ([1]; read-out: IC50 spike RBD/ACE2 binding, WT RBD sequence): 8.89
